In US6884774B2, “Cyclic hexapeptide derivatives” (Fujisawa Pharmaceutical Co. Ltd., priority 2000, dated 2005):
Starred links: 1 amine or outer side, 2 acyl side, 3 side chain; linkers in the order of their positions; H or OH if unused. Positions of bridges follow the written chain, without caps; N, C: chain ends. Non-standard residues stand in square brackets, D forms with d. Residues, ends and D or L forms follow the SMILES beside them. *: point of attachment. X2 = C[C@H]1CC[C@@H](N2CCN(c3ccc(-c4nnc(-c5ccc(C(=O)*)cc5)s4)cc3)CC2)CC1; hTyr(3R-OH,3'-OSO3H) = N[C@H](C(=O)O)[C@H](O)Cc1ccc(O)c(OS(=O)(=O)O)c1; X3 = COCCCCCOC1CCN(c2ccc(-c3nn4cc(-c5ccc(C(=O)*)cc5)nc4s3)cc2)CC1; Orn(3R-OH,Nδ-CH(CH2OH)2) = N[C@H](C(=O)O)[C@H](O)CCNC(CO)CO; X4 = COCCCCOc1ccc(-c2nn3cc(-c4ccc(C(=O)*)cc4)nc3s2)cc1; Orn(4R-OH) = O=C([C@H](C[C@@H](O)CN[*:3])N[*:1])[*:2]; X1 = COCCCCCCOc1ccc(-c2cc(-c3ccc(C(=O)*)cc3)no2)cc1; Pro(3S-OH,4S-Me) = C[C@H]1CN[C@H](C(=O)O)[C@H]1O; Hyp = O=C(O)[C@@H]1C[C@@H](O)CN1

Test system: Candida albicans FP-633
Format: cell-based
Conditions: FP-633, 24 h, pH 7.3
Experimental: In vitro antimicrobial activity of the object compound of Examples 4, 9, 25 and 30 disclosed later was determined by MICs in mouse serum as described below. The MICs in mouse serum were determined by the microdilution method using ICR mouse serum buffered with 20 mM HEPES buffer (pH 7.3) as a test medium. Inoculum suspension of 10^6 cells/ml were prepared by a hemocytometric procedure and diluted to obtain an inoculum size of approximately 1.0×10^3 cells/ml. Microplates were incubated at 37° C. for 24 hours in 5% CO2. The MICs were defined as the lowest concentrations at which no visible growth was observed.

| MIC | Compound |
| --- | --- |
| <0.3 µg/mL | C[C@@H](O)[C@@H]1NC(=O)[C@@H](NC(=O)c2ccc(-c3nnc(-c4ccc(N5CCN([C@H]6CC[C@@H](C)CC6)CC5)cc4)s3)cc2)C[C@@H](O)CNC(=O)[C@@H]2[C@@H](O)[C@@H](C)CN2C(=O)[C@H]([C@H](O)CCNC(CO)CO)NC(=O)[C@H]([C@H](O)Cc2ccc(O)c(OS(=O)(=O)O)c2)NC(=O)[C@@H]2C[C@@H](O)CN2C1=O [Example 9] (X2-[Orn(4R-OH)]T[Hyp][hTyr(3R-OH,3'-OSO3H)][Orn(3R-OH,Nδ-CH(CH2OH)2)][Pro(3S-OH,4S-Me)]; lactam 1-C) |
| <0.3 µg/mL | COCCCCOc1ccc(-c2nn3cc(-c4ccc(C(=O)N[C@H]5C[C@@H](O)CNC(=O)[C@@H]6[C@@H](O)[C@@H](C)CN6C(=O)[C@H]([C@H](O)CCNC(CO)CO)NC(=O)[C@H]([C@H](O)Cc6ccc(O)c(OS(=O)(=O)O)c6)NC(=O)[C@@H]6C[C@@H](O)CN6C(=O)[C@H]([C@@H](C)O)NC5=O)cc4)nc3s2)cc1 [Example 30] (X4-[Orn(4R-OH)]T[Hyp][hTyr(3R-OH,3'-OSO3H)][Orn(3R-OH,Nδ-CH(CH2OH)2)][Pro(3S-OH,4S-Me)]; lactam 1-C) |
| <0.3 µg/mL | COCCCCCOC1CCN(c2ccc(-c3nn4cc(-c5ccc(C(=O)N[C@H]6C[C@@H](O)CNC(=O)[C@@H]7[C@@H](O)[C@@H](C)CN7C(=O)[C@H]([C@H](O)CCNC(CO)CO)NC(=O)[C@H]([C@H](O)Cc7ccc(O)c(OS(=O)(=O)O)c7)NC(=O)[C@@H]7C[C@@H](O)CN7C(=O)[C@H]([C@@H](C)O)NC6=O)cc5)nc4s3)cc2)CC1 [Example 4] (X3-[Orn(4R-OH)]T[Hyp][hTyr(3R-OH,3'-OSO3H)][Orn(3R-OH,Nδ-CH(CH2OH)2)][Pro(3S-OH,4S-Me)]; lactam 1-C) |
| <0.3 µg/mL | COCCCCCCOc1ccc(-c2cc(-c3ccc(C(=O)N[C@H]4C[C@@H](O)CNC(=O)[C@@H]5[C@@H](O)[C@@H](C)CN5C(=O)[C@H]([C@H](O)CCNC(CO)CO)NC(=O)[C@H]([C@H](O)Cc5ccc(O)c(OS(=O)(=O)O)c5)NC(=O)[C@@H]5C[C@@H](O)CN5C(=O)[C@H]([C@@H](C)O)NC4=O)cc3)no2)cc1 [Example 25] (X1-[Orn(4R-OH)]T[Hyp][hTyr(3R-OH,3'-OSO3H)][Orn(3R-OH,Nδ-CH(CH2OH)2)][Pro(3S-OH,4S-Me)]; lactam 1-C) |
